Results published in patent publication US12663426B2, “Method and composition for measurement of nitric oxide” (The University of Chicago, priority 2019, dated 2026).

What was measured:
[1] = target: T1, NOS3 (Homo sapiens, UniProt P29474); assay: Steady state NOS3 activity imaging at plasma membrane and TGN with NOckout probes; assay type: cell-based; details: T-47D cells
T1 construct: endogenous, basal NOS3 activity was estimated at each of these sub-cellular locations in T-47D cells; endogenous in cells; host or cells: T-47D cells
Experimental: Image acquisition. T-47D cells were maintained as mentioned above in the cell culture section. Cells were washed twice with Hank's balanced salt solution (HBSS) before incubating them with 500 nM NOckout^TGN for 30 min or 500 nM NOckout^PM for 10 min at 37° C. followed by 3 washes with HBSS solution to remove any unloaded sensors. For steady state imaging (FIG. 1), cells were treated with indicated agonists or antagonists for 1 hr in complete RPMI-1640 medium. Care was taken not to exceed the final concentration of DMSO>1% at any time of the experiment. Additionally, 1% DMSO was used as a negative control in untreated (Basal) cells. […] The cells are then washed and imaged (FIG. 1f).
For simultaneous imaging cells were treated with 500 nM NOckout^TGN for 30 min where last 10 min cells were co-incubated with 500 nM NOckout^PM. In order to achieve lowest signal (PTIO, FIG. 1e-f) or to achieve bleaching profile (PTIO, FIG. 3e) cells were pre-treated with 500 μM PTIO for 15 minutes. Images were captured on a Laser scanning confocal Leica SP8 microscope using 63×, 1.4UV NA objective. Desired excitation and emission wavelengths was achieved using white light laser along with notch filters and acousto-optical tunable filters. A488, DAR and A647 were imaged using the following settings—Alexa488 (λex=488 nm, λem=500 nm to 540 nm), DAR (λex=554 nm, λem=565 nm to 610 nm) and Alexa647 (λex=647 nm, λem=665 nm to 710 nm).
Image analysis was performed using Fiji (Schindelin, J. et al. Fiji: an open-source platform for biological-image analysis. Nat Methods 9, 676-682 (2012)). Auto-fluorescence was subtracted from images for ratiometric analysis. For representation, images were further processed by smooth and despeckle functions. In order to present G/B or G/R images, a mask for each image was constructed using Otsu thresholding method, and mask-multiplied images were used for division. The ROI plugin in Fiji was used to select either TGN (Alexa647 channel) or PM (Alexa488 channel) and these ROIs were recalled in DAR channel to measure intensity in all three channels.
Next, endogenous, basal NOS3 activity was estimated at each of these sub-cellular locations in T-47D cells without explicitly activating NOS3. To do this, the ratiometric NOckout^PM response, i.e. the G/B ratio, was first measured under conditions where cells were depleted of NO using the NO scavenger 2-phenyl-4,4,5,5-tetramethylimidazoline-1-oxyl 3-oxide (PTIO, 300 μM) (Goldstein, S., Russo, A. & Samuni, A. Reactions of PTIO and carboxy-PTIO with *NO, *NO2, and O2−*. J Biol. Chem. 278, 50949-50955 (2003)). […] These two extreme cases provide the minimum and maximum G/B signals afforded by NOckout^PM in the cell (FIG. 1e-f). The G/B values under any subsequent condition are normalized to the maximum G/B signal. […]

[2] = test system: T-47D cells; assay: Golgi fragmentation (Giantin/GM130 immunofluorescence); assay type: cell-based
Experimental: (§1) Immunofluorescence staining. Cells were cultured on a glass bottom 3.5 cm imaging dish to reach 60% confluency. […] Treated cells were then washed three times with 1× PBS (pH 7.4) and fixed using, 4% paraformaldehyde at room temperature (RT, 15 min). Subsequently, cells were permeabilized using 0.25% triton X-100 followed by blocking using 3% BSA in 1× PBS. Cells were then incubated with indicated primary antibodies—mouse monoclonal anti-eNOS antibody (SantaCruz Cat #sc-376751), Polyclonal Anti-S-nitrosocysteine antibody (Abeam Cat #ab94930 or Abeam Cat #ab50185), Rabbit polyclonal Anti-Giantin antibody (Abeam Cat #ab24586) or Mouse monoclonal Anti-GM130 antibody (BD Biosciences Cat #610822) in blocking buffer (3% BSA in 1× 4 PBS) for 1 hour at RT. Cells were then washed for 5 min with 1× PBS (3×). Respective secondary antibodies conjugated with either Alexafluor 488 or Alexafluor 647 were added to the cells and incubated for 1 hr at RT. Cells were washed again to remove excess secondary antibody using 1× PBS for 5 min (3×). Hoechst 33342 (5 μM) was added 10 min prior to imaging to stain nuclear DNA. Cells were then imaged on a Leica SP8 laser scanning confocal microscope using excitation wavelengths 405 nm (Hoechst), 488 nm (AlexaFluor 488) and 647 nm (AlexaFluor 647). Images were processed using Fiji and maximum z-projection of 2-3 z-planes are used in representative images.
Golgi fragmentation was quantified with immunofluorescence images of Golgi structural protein Giantin. Merge images of Hoechst and Giantin allowed identification of cell numbers and enumeration of Golgi fragments per cell (≤3 Golgi fragments per cell was considered intact Golgi) (Lee, J. E. et al. Dependence of Golgi apparatus integrity on nitric oxide in vascular cells: implications in pulmonary arterial hypertension. Am. J. Physiol. Heart Circ. Physiol. 300, H1141-58 (2011)). […]
Small molecule inhibitors were then screened to identify the molecular pathway by which NOS3 inhibition induces Golgi fragmentation. This is based on the rationale that inhibiting a protein on this pathway should also block methylene blue-induced Golgi fragmentation. […] A range of small molecule inhibitors against kinases that have previously ascribed roles in Golgi fragmentation were then used. DNA-PK with NU7441 was ruled out (Farber-Katz, S. E. et al. DNA damage triggers Golgi dispersal via DNA-PK and GOLPH3. Cell 156, 413-427 (2014)). Compounds containing an indirubin core have broad specificity for Cyclin dependent kinases (CDKs) and Src kinases. […] CDK1, CDK2 and CDK5 were ruled out, using (R)-Roscovitine (Rosco).

[3] = target: T2, NOS2 (Mus musculus, UniProt P29477); assay: In cellulo specificity of NOckout to NO in LPS primed J774A.1 cells; assay type: cell-based; details: LPS primed J774A.1 cells, 1400 W 10 μM
T2 construct: J774A.1 cells were treated with 1 μg/mL LPS for 12 h prior to the addition of NOckout; endogenous in cells; host or cells: J774A.1 macrophages primed with LPS
Experimental: Pharmacological inhibition: Pharmacological inhibition of different enzymes were performed by employing known inhibitors. […] Cells were bathed in inhibitors 1 h prior to the addition of NOckout probes during the specificity experiment performed in J774A.1 cells.
In cellulo specificity of NOckout to NO: In cellulo specificity of the NOckout probe towards NO^− was validated in J774A.1 cells. […] J774A.1 cells were treated with 1 μg/mL LPS for 12 h prior to the addition of NOckout (500 nM in HBSS) either in the presence or in absence of specific inhibitors. LPS addition was employed to induce the expression of NOS2NOX and MPO. […] After 90 minutes of incubation with the NOckout culture media was removed from the cells and three washes were performed using HBSS to remove extracellular NOckout before proceeding to the fluorescence imaging. […]
The in-cell specificity of NOckout can be evaluated by measuring the contribution of the reactive species produced by NOX, MPO and NOS2 to the observed fold change in G/R ratio upon LPS stimulation. […] As NOS2 activity is not pan-endosomal, specificity is given by quantifying the percentage of endosomes that show G/R values higher than the mean G/R value in endosomes of unstimulated, NOS2 inhibited cells, as the latter corresponds to basal endosomal NO levels (FIG. 6c).

[4] = test system: S-nitrosylation at the Golgi; assay: Anti-S-nitrosocysteine immunostaining of T-47D cells; assay type: cell-based
Experimental: as §1
In order to address the significance of the […] population of NOS3 at the TGN, T-47D cells were immunostained using an antibody specific to S-nitrosocysteine.
Similar observations were made in MCF-7 cells upon NO depletion (FIG. 23). These studies reveal that the Golgi is a cellular hot-spot for 5-nitrosylation of proteins by NOS3, where it is essential for the maintenance of Golgi architecture in breast cancer cells. […] In addition to Golgi fragmentation, NO scavenging also hampered cell growth by inducing cell sensescence (FIG. 24).

[5] = test system: TLR-9 and TLR-21; assay: Phagosomal NO in zebrafish microglia with NOckout^zCpG; assay type: in vivo
From the text: Zebrafish brain was imaged in the optic tectum using an upright Zeiss LSM-710 confocal microscope equipped with water immersion objectives (20×, or 40×). Zebrafish larvae (3-4 dpf were mounted dorsally in a 1.5% low-melting point agar-bed on a confocal imaging dish (3.5 cm glass bottom). E3-containing 0.003% MS-222 was present in the imaging dish though out the imaging section. For NOckout injected samples, images were acquired simultaneously in GFP, DAR, and A647N channels using excitation wavelengths 488 nm, […] from Argon-ion (488 nm), Helium-Neon (543 nm & 632 nm) laser sources respectively. pHrodo was imaged using the same settings as that of DAR.
Image analysis: A MATLAB based program called Findosome was used to calculate the (G/R) values of individual endosomes from the acquired images. […] For each ROI, the program calculates fluorescence intensities both in the normalizing channel (A647, R) as well as in the DAR (G) channel. […] From the results, (G/R) value for individual endosomes can be calculated. Phagosomal (G/R) values from the zebrafish microglia are calculated using Fiji software. […] Fluorescence intensities in A647 and DAR channels were calculated. […] For (G/R) ratio quantification experiments, only those vesicles that are present in both green (G) and red (R) channels were considered. […]

CC(=N)NCc1cccc(CN)c1 [1400 W]
G/B and G/R values of NOckout probes (NOS3 activity) [1]: no effect | Golgi fragmentation by treatment alone [2]: none of these treatments fragmented the Golgi | reduction of NOckout signal [3]: ~50% | S-nitrosylation at the Golgi [4]: no change | reduction of phagosomal G/R versus NOckout^zCpG [5]: ~50%
